Results as given in patent US4200744A, “Substituted 7α-methoxy-7β[(2,3-dioxo-1-piperazinyl)carbonylaminophenylace tamido]cephalosporins” (Toyama Chemical Company, Limited, priority 1977, dated 1980).

Experiments:
[1] = biological target: T1, Cephalosporinase Pseudomonas aeruginosa TN 918 (Pseudomonas aeruginosa, UniProt P24735); experiment: Resistance against β-lactamase, iodometric assay; assay type: biochemical; details: activity of control Cephalorigine assumed as 100
T1 construct: TN 918; endogenous in cells; host or cells: Pseudomonas aeruginosa TN 918
Procedure: (§1) The resistant activity against β-lactamase of the product obtained above was as shown in Table 3 in which comparisons are shown:
(§2) The resistance of each compound against β-lactamase was determined by the iodometric assay method.

[2] = biological target: T2, Cephalosporinase Serratia W-8 (Serratia marcescens, UniProt P18539); experiment: Resistance against β-lactamase, iodometric assay; assay type: biochemical; details: activity of control Cephalorigine assumed as 100
T2 construct: W-8; endogenous in cells; host or cells: Serratia W-8
Procedure: as §1, §2

[3] = system: Penicillinase E. coli TK-3; experiment: Resistance against β-lactamase, iodometric assay; assay type: biochemical; details: activity of control potassium Penicillin G assumed as 100
Procedure: as §1, §2

Serratia marcescens W-8 = experiment: MIC by plate method; assay type: cell-based; parameters: unit not given here; details: Heart Infusion agar pH 7.4, inoculum 10^4 cells per plate (10^6 cells/ml)
Procedure: (§3) The minimum inhibitory concentration (MIC) was determined by the plate method disclosed in "Chemotherapy" (Japan), Vol. 16, (1968), pages 98-99. The culture medium used was a Heart Infusion agar (pH 7.4). The number of the cells per plate used in the inoculum was 10^4 (10^6 cells/ml).

Escherichia coli NIHJ = experiment: MIC by plate method; assay type: cell-based; parameters: unit not given here; details: Heart Infusion agar pH 7.4, inoculum 10^4 cells per plate (10^6 cells/ml)
Procedure: as §3

[4] = system: Staphylococcus aureus F-19 (Penicillinase-producing bacterium); experiment: MIC by plate method; assay type: cell-based; parameters: unit not given here; details: Heart Infusion agar pH 7.4, inoculum 10^4 cells per plate (10^6 cells/ml)
Procedure: as §3

[5] = system: Citrobacter freundii GN 346 (Cephalosporinase-producing bacterium); experiment: MIC by plate method; assay type: cell-based; parameters: unit not given here; details: Heart Infusion agar pH 7.4, inoculum 10^4 cells per plate (10^6 cells/ml)
Procedure: as §3

[6] = system: Klebsiella pneumoniae Y-50; experiment: MIC by plate method; assay type: cell-based; parameters: unit not given here; details: Heart Infusion agar pH 7.4, inoculum 10^4 cells per plate (10^6 cells/ml)
Procedure: as §3

[7] = system: Pseudomonas aeruginosa IFO-3445; experiment: MIC by plate method; assay type: cell-based; parameters: unit not given here; details: Heart Infusion agar pH 7.4, inoculum 10^4 cells per plate (10^6 cells/ml)
Procedure: as §3

[8] = system: Proteus vulgaris GN 76 (Cephalosporinase-producing bacterium); experiment: MIC by plate method; assay type: cell-based; parameters: unit not given here; details: Heart Infusion agar pH 7.4, inoculum 10^4 cells per plate (10^6 cells/ml)
Procedure: as §3

[9] = system: Enterobacter cloacae IID 977; experiment: MIC by plate method; assay type: cell-based; parameters: unit not given here; details: Heart Infusion agar pH 7.4, inoculum 10^4 cells per plate (10^6 cells/ml)
Procedure: as §3

[10] = system: Citrobacter spp Toyama Citizen No. 31; experiment: MIC by plate method; assay type: cell-based; details: Heart Infusion agar pH 7.4, inoculum 10^4 cells per plate (10^6 cells/ml)
Procedure: as §3

[11] = system: Acinetobacter calcoaceticus A-6; experiment: MIC by plate method; assay type: cell-based; details: Heart Infusion agar pH 7.4, inoculum 10^4 cells per plate (10^6 cells/ml)
Procedure: as §3

T2 sequence (P18539 22-376): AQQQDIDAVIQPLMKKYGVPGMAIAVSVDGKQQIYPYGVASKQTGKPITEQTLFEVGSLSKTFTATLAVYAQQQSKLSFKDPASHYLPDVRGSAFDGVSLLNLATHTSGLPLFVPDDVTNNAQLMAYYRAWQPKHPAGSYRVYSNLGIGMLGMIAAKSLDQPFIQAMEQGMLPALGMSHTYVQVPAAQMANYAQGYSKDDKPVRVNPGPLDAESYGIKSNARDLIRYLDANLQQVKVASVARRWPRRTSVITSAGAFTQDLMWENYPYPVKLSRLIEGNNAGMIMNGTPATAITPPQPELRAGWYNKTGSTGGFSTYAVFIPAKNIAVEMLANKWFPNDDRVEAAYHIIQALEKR
T1 sequence (P24735 27-397): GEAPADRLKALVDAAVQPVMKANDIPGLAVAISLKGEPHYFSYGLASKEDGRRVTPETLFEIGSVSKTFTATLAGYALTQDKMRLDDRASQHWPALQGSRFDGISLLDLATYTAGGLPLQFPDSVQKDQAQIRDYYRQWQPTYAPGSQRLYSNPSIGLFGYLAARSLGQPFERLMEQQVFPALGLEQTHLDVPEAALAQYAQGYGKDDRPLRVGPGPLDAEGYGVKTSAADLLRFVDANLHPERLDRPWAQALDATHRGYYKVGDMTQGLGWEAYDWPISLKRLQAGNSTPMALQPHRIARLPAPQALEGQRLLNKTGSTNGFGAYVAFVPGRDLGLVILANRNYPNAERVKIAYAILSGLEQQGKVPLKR

SMILES	relative activity value, Cephalosporinase Pseudomonas aeruginosa TN 918 [1]	relative activity value, Cephalosporinase Serratia W-8 [2]	relative activity value, Penicillinase E. coli TK-3 [3]	minimum inhibitory concentration (MIC) (Serratia marcescens W-8)	minimum inhibitory concentration (MIC) (Escherichia coli NIHJ)	minimum inhibitory concentration (MIC) [4]	minimum inhibitory concentration (MIC) [5]	minimum inhibitory concentration (MIC) [6]	minimum inhibitory concentration (MIC) [7]	minimum inhibitory concentration (MIC) [8]	minimum inhibitory concentration (MIC) [9]	minimum inhibitory concentration (MIC) [10]	minimum inhibitory concentration (MIC) [11]
O=C(Cc1cccs1)N[C@@H]1C(=O)N2C(C(=O)[O-])=C(C[n+]3ccccc3)CS[C@H]12 [Cephalorigine]	100	100	115	–	–	–	–	–	–	–	–	–	–
CCN1CCN(C(=O)N[C@@H](C(=O)N[C@]2(OC)C(=O)N3C(C(=O)O)=C(CSc4nnnn4C)CS[C@@H]32)c2ccccc2)C(=O)C1=O [Compound No. 1, 7β-[D(-)-α-(4-ethyl-2,3-dioxo-1-piperazinylcarbonylamino)phenylacetamido]-7α-methoxy-3-[5-(1-methyl-1,2,3,4-tetrazolyl)thiomethyl]-Δ^3-cephem-4-carboxylic acid]	–	–	–	50	≤ 0.1	6.25	100	0.78	12.5	0.78	25	1.56	12.5
CCN1CCN(C(=O)N[C@@H](C(=O)N[C@]2(OC)C(=O)N3C(C(=O)O)=C(CSc4nnnn4C)CS[C@@H]32)c2ccc(O)cc2)C(=O)C1=O [Compound No. 2, 7β-[D(-)-α-(4-ethyl-2,3-dioxo-1-piperazinylcarbonylamino)-p-hydroxyphenylacetamido]-7α-methoxy-3-[5-(1-methyl-1,2,3,4-tetrazolyl)thiomethyl]-Δ^3-cephem-4-carboxylic acid]	–	–	–	100	≤ 0.1	6.25	100	0.2	6.25	0.39	100	1.56	6.25
CCN1CCN(C(=O)N[C@@H](C(=O)N[C@]2(OC)C(=O)N3C(C(=O)O)=C(CSc4nnc(C)s4)CS[C@@H]32)c2ccccc2)C(=O)C1=O [Compound No. 3, 7β-[D(-)-α-(4-ethyl-2,3-dioxo-1-piperazinylcarbonylamino)phenylacetamido]-7α-methoxy-3-[2-(5-methyl-1,3,4-thiadiazolyl)thiomethyl]-Δ^3-cephem-4-carboxylic acid]	–	–	–	200	≤ 0.1	12.5	> 200	1.56	100	3.13	100	6.25	25
CCN1CCN(C(=O)N[C@@H](C(=O)N[C@]2(OC)C(=O)N3C(C(=O)O)=C(COC(C)=O)CS[C@@H]32)c2ccccc2)C(=O)C1=O [Compound No. 4, 7β-[D(-)-α-(4-ethyl-2,3-dioxo-1-piperazinylcarbonylamino)phenylacetamido]-7α-methoxy-3-acetoxymethyl-Δ^3-cephem-4-carboxylic acid]	< 0.4	< 0.06	< 0.04	200	≤ 0.1	12.5	–	1.56	50	1.56	100	–	–
CCN1CCN(C(=O)N[C@@H](C(=O)N[C@]2(OC)C(=O)N3C(C(=O)O)=C(COC(C)=O)CS[C@@H]32)c2ccc(O)cc2)C(=O)C1=O [Compound No. 5, 7β-[D(-)-α-(4-ethyl-2,3-dioxo-1-piperazinylcarbonylamino)-p-hydroxyphenylacetamido]-7α-methoxy-3-acetoxymethyl-Δ^3-cephem-4-carboxylic acid]	–	–	–	200	≤ 0.1	25	25	0.78	12.5	3.13	100	–	–
CC1(C)S[C@@H]2[C@H](NC(=O)Cc3ccccc3)C(=O)N2[C@H]1C(=O)O [Potassium Penicillin G]	16	21	100	–	–	–	–	–	–	–	–	–	–
